Results reported in ChEMBL document CHEMBL5532698, “2,3-Dihydroquinazolin-4(1H)-ones and quinazolin-4(3H)-ones as broad-spectrum cytotoxic agents and their impact on tubulin polymerisation” (RSC Med Chem, 2024).

Tests used:
BE(2)-C [1] = test: Antiproliferative activity against human BE2C cells assessed as cell growth inhibition at 25 uM incubated for 72 hrs by MTT assay relative to control; format: functional
[2] = Cytotoxicity against human MCF-10A cells assessed as cell growth inhibition incubated for 72 hrs by MTT assay; format: toxicity, cell-based
DU-145 [3] = test: Antiproliferative activity against human DU-145 cells assessed as cell growth inhibition at 25 uM incubated for 72 hrs by MTT assay relative to control; format: functional
[4] = Cytotoxicity against human MCF-10A cells assessed as cell growth inhibition at 25 uM incubated for 72 hrs by MTT assay relative to control; format: toxicity, cell-based
MCF7 [5] = test: Antiproliferative activity against human MCF7 cells assessed as cell growth inhibition at 25 uM incubated for 72 hrs by MTT assay relative to control; format: functional
HT-29 [6] = test: Antiproliferative activity against human HT-29 cells assessed as cell growth inhibition incubated for 72 hrs by MTT assay; format: functional
U-87 MG [7] = test: Antiproliferative activity against human U87 cells assessed as cell growth inhibition incubated for 72 hrs by MTT assay; format: functional, U-87MG ATCC
A-431 [8] = test: Antiproliferative activity against human A-431 cells assessed as cell growth inhibition at 25 uM incubated for 72 hrs by MTT assay relative to control; format: functional
A-431 [9] = test: Antiproliferative activity against human A-431 cells assessed as cell growth inhibition incubated for 72 hrs by MTT assay; format: functional
[10] = Antiproliferative activity against human SJG2 cells assessed as cell growth inhibition incubated for 72 hrs by MTT assay; format: functional; conditions: SJ-G2
MIA PaCa-2 [11] = test: Antiproliferative activity against human MIA PaCa-2 cells assessed as cell growth inhibition incubated for 72 hrs by MTT assay; format: functional
BE(2)-C [12] = test: Antiproliferative activity against human BE2C cells assessed as cell growth inhibition incubated for 72 hrs by MTT assay; format: functional
[13] = Antiproliferative activity against human SJG2 cells assessed as cell growth inhibition at 25 uM incubated for 72 hrs by MTT assay relative to control; format: functional; conditions: SJ-G2
HT-29 [14] = test: Antiproliferative activity against human HT-29 cells assessed as cell growth inhibition at 25 uM incubated for 72 hrs by MTT assay relative to control; format: functional
A2780 [15] = test: Antiproliferative activity against human A2780 cells assessed as cell growth inhibition incubated for 72 hrs by MTT assay; format: functional
DU-145 [16] = test: Antiproliferative activity against human DU-145 cells assessed as cell growth inhibition incubated for 72 hrs by MTT assay; format: functional
U-87 MG [17] = test: Antiproliferative activity against human U87 cells assessed as cell growth inhibition at 25 uM incubated for 72 hrs by MTT assay relative to control; format: functional, U-87MG ATCC
MIA PaCa-2 [18] = test: Antiproliferative activity against human MIA PaCa-2 cells assessed as cell growth inhibition at 25 uM incubated for 72 hrs by MTT assay relative to control; format: functional
MCF7 [19] = test: Antiproliferative activity against human MCF7 cells assessed as cell growth inhibition incubated for 72 hrs by MTT assay; format: functional
NCI-H460 [20] = test: Antiproliferative activity against human NCI-H460 cells assessed as cell growth inhibition at 25 uM incubated for 72 hrs by MTT assay relative to control; format: functional
NCI-H460 [21] = test: Antiproliferative activity against human NCI-H460 cells assessed as cell growth inhibition incubated for 72 hrs by MTT assay; format: functional
A2780 [22] = test: Antiproliferative activity against human A2780 cells assessed as cell growth inhibition at 25 uM incubated for 72 hrs by MTT assay relative to control; format: functional

| SMILES | inhibition at 25 µM (BE(2)-C [1]) | inhibition at 25 µM (DU-145 [3]) | inhibition at 72 h, 25 µM [4] | inhibition at 25 µM (MCF7 [5]) | inhibition at 25 µM (A-431 [8]) | inhibition at 25 µM [13] | inhibition at 25 µM (HT-29 [14]) | inhibition at 25 µM (U-87 MG [17]) | inhibition at 25 µM (MIA PaCa-2 [18]) | inhibition at 25 µM (NCI-H460 [20]) | inhibition at 25 µM (A2780 [22]) | other results |
| --- | --- | --- | --- | --- | --- | --- | --- | --- | --- | --- | --- | --- |
| O=C1NC(c2ccc(-c3ccccc3)cc2)Nc2ccccc21 (stereo unspecified) | 92% | > 100% | 98% | > 100% | > 100% | > 100% | > 100% | > 100% | > 100% | > 100% | > 100% | GI50 at 72 h [2]: 2.3 µM; GI50 (HT-29 [6]): 2.3 µM; GI50 (U-87 MG [7]): 2.2 µM; GI50 (A-431 [9]): 2.4 µM; GI50 [10]: 2.6 µM; GI50 (MIA PaCa-2 [11]): 2.3 µM; GI50 (BE(2)-C [12]): 2 µM; GI50 (A2780 [15]): 3.8 µM; GI50 (DU-145 [16]): 2.3 µM; GI50 (MCF7 [19]): 1.6 µM; GI50 (NCI-H460 [21]): 2.8 µM |
| O=C1NC(c2ccc(O)cc2)Nc2ccccc21 (stereo unspecified) | 100% | 90% | 91% | 55% | 108% | > 100% | > 100% | 72% | 84% | 88% | 95% | GI50 at 72 h [2]: 9.9 µM; GI50 (HT-29 [6]): 3.7 µM; GI50 (U-87 MG [7]): 16 µM; GI50 (A-431 [9]): 3.2 µM; GI50 [10]: 8.9 µM; GI50 (MIA PaCa-2 [11]): 8.8 µM; GI50 (BE(2)-C [12]): 4.1 µM; GI50 (A2780 [15]): 3.2 µM; GI50 (DU-145 [16]): 10 µM; GI50 (MCF7 [19]): 12 µM; GI50 (NCI-H460 [21]): 10 µM |
| N#Cc1ccc2[nH]cc(-c3nc4ccccc4c(=O)[nH]3)c2c1 | – | – | – | – | – | – | – | – | – | – | – | GI50 at 72 h [2]: 3.5 µM; GI50 (HT-29 [6]): 3.9 µM; GI50 (U-87 MG [7]): 3.2 µM; GI50 (A-431 [9]): 4.9 µM; GI50 [10]: 2.8 µM; GI50 (MIA PaCa-2 [11]): 3.5 µM; GI50 (BE(2)-C [12]): 3.4 µM; GI50 (A2780 [15]): 2.7 µM; GI50 (DU-145 [16]): 2.8 µM; GI50 (MCF7 [19]): 2.7 µM; GI50 (NCI-H460 [21]): 2.5 µM |
| O=C1NC(c2c[nH]c3ccccc23)Nc2ccccc21 (stereo unspecified) | 89% | ≥ 77% | 90% | 78% | ≥ 79% | > 100% | ≥ 84% | 70% | 79% | 87% | 94% | – |
| O=C1NC(c2ccccc2C(=O)O)Nc2ccccc21 (stereo unspecified) | 19% | 20% | 20% | 49% | 22% | 49% | 37% | < 10% | 20% | 43% | 48% | – |
| O=C1NC(c2cc(O)c(O)c(O)c2)Nc2ccccc21 (stereo unspecified) | 27% | 40% | 51% | 56% | 21% | 10% | 49% | 29% | 34% | 19% | 36% | – |
| N#Cc1cccc(C2NC(=O)c3ccccc3N2)c1 (stereo unspecified) | 20% | 26% | 12% | 60% | 34% | 18% | 31% | 19% | 14% | 17% | 54% | – |
| O=C(O)c1cccc(C2NC(=O)c3ccccc3N2)c1 (stereo unspecified) | 12% | 31% | 22% | 43% | < 10% | 12% | 24% | 10% | 13% | 12% | 10% | – |
| O=C(O)c1ccc(C2NC(=O)c3ccccc3N2)cc1 (stereo unspecified) | 12% | 36% | 8% | 41% | < 10% | 10% | 18% | 13% | 14% | < 10% | < 10% | – |
| O=C1NC(c2ccc3nsnc3c2)Nc2ccccc21 (stereo unspecified) | 64% | 22% | 41% | 49% | 25% | 29% | 35% | < 10% | 22% | 21% | 60% | – |
| COc1cc2c(c(OC)c1OC)-c1ccc(OC)c(=O)cc1[C@@H](NC(C)=O)CC2 [COLCHICINE] | 61% | 34% | 57% | 85% | 11% | 47% | 50% | 21% | 89% | 35% | 62% | – |
| N#Cc1ccc(C2NC(=O)c3ccccc3N2)cc1 (stereo unspecified) | < 10% | 10% | 10% | 40% | < 10% | 14% | 16% | < 10% | 11% | 11% | 18% | – |
| O=C1NC(c2ccccc2[N+](=O)[O-])Nc2ccccc21 (stereo unspecified) | < 10% | 27% | 16% | 16% | 36% | 33% | 28% | 16% | 21% | 35% | 33% | – |
| O=C1NC(C2CCCC2)Nc2ccccc21 (stereo unspecified) | 20% | 22% | 12% | 35% | 15% | < 10% | 22% | 11% | 19% | < 10% | 39% | – |
